# In ChEMBL document CHEMBL5537128, “Discovery of LWY713 as a potent and selective FLT3 PROTAC degrader with in vivo activity against acute myeloid leukemia” (Eur J Med Chem, 2024):
# pIC50: −log10 of the molar value. The source made the active and inactive calls. The calls are words filed in the database; no cut-off is given here.
# Legend:
# [1] = molecular target: T1, Protein cereblon/Receptor-type tyrosine-protein kinase FLT3 (Homo sapiens, UniProt P36888+Q96SW2); experiment: PROTAC activity at CRBN/FLT3 in human MV4-11 cells harboring FLT3-ITD mutation assessed as induction of FLT3 degradation incubated for 24 hrs by immunoblotting analysis; format: cell-based
# [2] = molecular target: T1, Protein cereblon/Receptor-type tyrosine-protein kinase FLT3; experiment: PROTAC activity at CRBN/FLT3 in human MV4-11 cells harboring FLT3-ITD mutation assessed as induction of FLT3 degradation by measuring maximal efficacy incubated for 24 hrs by immunoblotting analysis relative to control; format: cell-based
# Target sequence in this assay (P36888 27-993 limits assumed): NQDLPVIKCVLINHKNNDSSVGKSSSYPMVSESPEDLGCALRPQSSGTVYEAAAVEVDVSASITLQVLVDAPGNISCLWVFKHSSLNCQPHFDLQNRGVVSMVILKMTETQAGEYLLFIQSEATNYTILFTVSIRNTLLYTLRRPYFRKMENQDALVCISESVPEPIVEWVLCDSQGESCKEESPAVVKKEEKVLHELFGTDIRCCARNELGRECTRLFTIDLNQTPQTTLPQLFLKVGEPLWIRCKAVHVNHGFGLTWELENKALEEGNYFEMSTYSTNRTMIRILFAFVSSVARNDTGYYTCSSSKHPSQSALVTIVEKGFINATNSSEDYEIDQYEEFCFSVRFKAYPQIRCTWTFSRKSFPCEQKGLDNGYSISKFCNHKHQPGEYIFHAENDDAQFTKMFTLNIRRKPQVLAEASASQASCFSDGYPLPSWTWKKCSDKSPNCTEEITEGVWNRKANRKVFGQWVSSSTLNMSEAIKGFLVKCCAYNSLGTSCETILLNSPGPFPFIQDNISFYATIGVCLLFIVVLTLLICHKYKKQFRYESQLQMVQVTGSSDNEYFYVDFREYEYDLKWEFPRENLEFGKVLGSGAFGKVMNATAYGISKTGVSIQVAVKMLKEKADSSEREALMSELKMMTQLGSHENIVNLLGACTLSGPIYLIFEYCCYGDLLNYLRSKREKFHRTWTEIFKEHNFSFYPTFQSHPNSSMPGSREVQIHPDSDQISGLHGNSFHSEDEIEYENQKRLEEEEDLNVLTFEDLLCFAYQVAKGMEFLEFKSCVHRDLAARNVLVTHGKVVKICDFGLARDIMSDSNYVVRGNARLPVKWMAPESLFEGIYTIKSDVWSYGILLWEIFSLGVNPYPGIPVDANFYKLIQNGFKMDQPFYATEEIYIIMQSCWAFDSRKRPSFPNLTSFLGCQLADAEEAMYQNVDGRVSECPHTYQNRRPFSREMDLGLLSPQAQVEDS
# Target sequence in this assay (Q96SW2 whole entry partner): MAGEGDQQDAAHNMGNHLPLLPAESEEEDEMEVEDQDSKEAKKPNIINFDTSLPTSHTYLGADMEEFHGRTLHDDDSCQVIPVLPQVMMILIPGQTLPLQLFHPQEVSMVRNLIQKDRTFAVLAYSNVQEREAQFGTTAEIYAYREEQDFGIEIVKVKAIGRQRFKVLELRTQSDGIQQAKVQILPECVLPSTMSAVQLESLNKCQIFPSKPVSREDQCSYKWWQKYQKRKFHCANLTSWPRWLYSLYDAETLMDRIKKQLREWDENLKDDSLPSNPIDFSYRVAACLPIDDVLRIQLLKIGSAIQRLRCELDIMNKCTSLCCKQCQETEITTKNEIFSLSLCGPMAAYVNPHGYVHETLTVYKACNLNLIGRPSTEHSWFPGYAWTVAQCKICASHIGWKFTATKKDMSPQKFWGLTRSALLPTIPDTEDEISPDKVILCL
# [3] = molecular target: T1, Protein cereblon/Receptor-type tyrosine-protein kinase FLT3; experiment: PROTAC activity at CRBN/FLT3 in human MV4-11 cells harboring FLT3-ITD mutation assessed as induction of FLT3 degradation at 10 nM incubated for 24 hrs by immunoblotting analysis relative to control; format: cell-based
# Target sequence in this assay (P36888 27-993 limits assumed): as the sequence (P36888 27-993 limits assumed) above
# Target sequence in this assay (Q96SW2 whole entry partner): as the sequence (Q96SW2 whole entry partner) above
# MV4-11 [4] = experiment: Antiproliferative activity against human MV4-11 cells assessed as inhibition of cell proliferation incubated for 72 hrs by CCK8 assay; format: functional, cell-based; conditions: MV4-11, 72 h
# MV4-11 [5] = experiment: Induction of cell cycle arrest at G0/G1 phase in human MV4-11 cells assessed as S phase cells at 2 nM incubated for 24 hrs by PI staining based flow cytometric analysis relative to control; format: functional
# MV4-11 [6] = experiment: Induction of cell cycle arrest at G0/G1 phase in human MV4-11 cells assessed as G2/M phase cells at 2 nM incubated for 24 hrs by PI staining based flow cytometric analysis relative to control; format: functional
# MV4-11 [7] = experiment: Induction of apoptosis in human MV4-11 cells assessed as late apoptotic cells at 2 nM incubated for 48 hrs by Annexin V/7-AAD staining based flow cytometric analysis relative to control; format: functional
# MV4-11 [8] = experiment: Induction of cell cycle arrest at G0/G1 phase in human MV4-11 cells assessed as G0/G1 phase cells at 2 nM incubated for 24 hrs by PI staining based flow cytometric analysis relative to control; format: functional
# MV4-11 [9] = experiment: Induction of cell cycle arrest at G0/G1 phase in human MV4-11 cells assessed as sub-G0/G1 phase cells at 0.4 nM incubated for 24 hrs by PI staining based flow cytometric analysis relative to control; format: functional
# MV4-11 [10] = experiment: Inhibition of PI3K/AKT signaling pathway in human MV4-11 cells assessed as reduction in phosphorylated AKT level at 0.08 to 50 nM incubated for 24 hrs by immunoblotting analysis; format: cell-based; conditions: dose 0.08-50 nM
# MV4-11 [11] = experiment: Induction of apoptosis in human MV4-11 cells assessed as necrotic cells at 10 nM incubated for 48 hrs by Annexin V/7-AAD staining based flow cytometric analysis relative to control; format: functional
# MV4-11 [12] = experiment: Induction of cell cycle arrest at G0/G1 phase in human MV4-11 cells assessed as G2/M phase cells at 0.4 nM incubated for 24 hrs by PI staining based flow cytometric analysis relative to control; format: functional
# MV4-11 [13] = experiment: Induction of cell cycle arrest at G0/G1 phase in human MV4-11 cells assessed as sub-G0/G1 phase cells at 2 nM incubated for 24 hrs by PI staining based flow cytometric analysis relative to control; format: functional
# MV4-11 [14] = experiment: Induction of cell cycle arrest at G0/G1 phase in human MV4-11 cells assessed as G0/G1 phase cells at 0.4 nM incubated for 24 hrs by PI staining based flow cytometric analysis relative to control; format: functional
# MV4-11 [15] = experiment: Antitumor activity against human MV4-11 cells xenografted in NOD/SCID mouse assessed as reduction in tumor volume at 6 mg/kg, po administered once a day for 21 days; format: functional, organism-based; conditions: time 21.0 day
# MV4-11 [16] = experiment: Induction of apoptosis in human MV4-11 cells assessed as early apoptotic cells at 2 nM incubated for 48 hrs by Annexin V/7-AAD staining based flow cytometric analysis relative to control; format: functional
# MV4-11 [17] = experiment: Induction of apoptosis in human MV4-11 cells assessed as late apoptotic cells at 10 nM incubated for 48 hrs by Annexin V/7-AAD staining based flow cytometric analysis relative to control; format: functional
# MV4-11 [18] = experiment: Induction of apoptosis in human MV4-11 cells assessed as early apoptotic cells at 10 nM incubated for 48 hrs by Annexin V/7-AAD staining based flow cytometric analysis relative to control; format: functional
# MV4-11 [19] = experiment: Induction of cell cycle arrest at G0/G1 phase in human MV4-11 cells assessed as S phase cells at 0.4 nM incubated for 24 hrs by PI staining based flow cytometric analysis relative to control; format: functional
compound,measurement,setting,value
CCc1nc(C(N)=O)c(Nc2ccc(N3CCC(N4CCN(C(=O)CCCCCNc5cccc6c5C(=O)N(C5CCC(=O)NC5=O)C6=O)CC4)CC3)c(OC)c2)nc1NC1CCOCC1 (configuration not stated),DC50,[1],2.26 nM
same,Emax,[2],77.2%
same,Activity,[3],66%
CCc1nc(C(N)=O)c(Nc2ccc(N3CCC(N4CCN(C(=O)COc5cccc6c5CN(C5CCC(=O)N(C)C5=O)C6=O)CC4)CC3)c(OC)c2)nc1NC1CCOCC1 (configuration not stated),pIC50,MV4-11 [4],7.64
same,DC50,[1],> 1000 nM
CCc1nc(C(N)=O)c(Nc2ccc(N3CCC(N4CCN(C(=O)COc5cccc6c5C(=O)N(C5CCC(=O)NC5=O)C6=O)CC4)CC3)c(OC)c2)nc1NC1CCOCC1 (configuration not stated),DC50,[1],1.26 nM
same,Emax,[2],86.8%
same,Activity,[3],58%
CCc1nc(C(N)=O)c(Nc2ccc(N3CCC(N4CCN(C(=O)CNc5ccc6c(c5)C(=O)N(C5CCC(=O)NC5=O)C6=O)CC4)CC3)c(OC)c2)nc1NC1CCOCC1 (configuration not stated),Activity,[3],52%
CCc1nc(C(N)=O)c(Nc2ccc(N3CCC(N4CCN(C(=O)CCCCCCCCCOc5cccc6c5C(=O)N(C5CCC(=O)NC5=O)C6=O)CC4)CC3)c(OC)c2)nc1NC1CCOCC1 (configuration not stated),Activity,[3],0%
CCc1nc(C(N)=O)c(Nc2ccc(N3CCC(N4CCN(C)CC4)CC3)c(OC)c2)nc1NC1CCOCC1 [GILTERITINIB],pIC50,MV4-11 [4],8.16
same,Activity,MV4-11 [5],6.9%
same,Activity,MV4-11 [6],18.5%
same,Activity,MV4-11 [7],6.8%
same,Activity,MV4-11 [8],72.4%
same,Activity,MV4-11 [9],1.6%
same,inhibition,MV4-11 [10],inactive
same,Activity,MV4-11 [11],2.3%
same,Activity,MV4-11 [12],21.5%
same,Activity,MV4-11 [13],1.9%
same,Activity,MV4-11 [14],66.3%
same,Activity,MV4-11 [15],Active
same,Activity,MV4-11 [16],3%
same,Activity,MV4-11 [17],19.6%
same,Activity,MV4-11 [18],5.5%
same,Activity,MV4-11 [19],10.4%
CCc1nc(C(N)=O)c(Nc2ccc(N3CCC(N4CCN(c5ccc6c(c5)C(=O)N(C5CCC(=O)NC5=O)C6=O)CC4)CC3)c(OC)c2)nc1NC1CCOCC1 (configuration not stated),Activity,[3],0%
CCc1nc(C(N)=O)c(Nc2ccc(N3CCC(N4CCN(C(=O)COc5ccc6c(c5)C(=O)N(C5CCC(=O)NC5=O)C6=O)CC4)CC3)c(OC)c2)nc1NC1CCOCC1 (configuration not stated),Activity,[3],0%
CCc1nc(C(N)=O)c(Nc2ccc(N3CCC(N4CCN(C(=O)CCCCCOc5ccc6c(c5)C(=O)N(C5CCC(=O)NC5=O)C6=O)CC4)CC3)c(OC)c2)nc1NC1CCOCC1 (configuration not stated),Activity,[3],32%
CCc1nc(C(N)=O)c(Nc2ccc(N3CCC(N4CCN(C(=O)CCCCCCCNc5cccc6c5C(=O)N(C5CCC(=O)NC5=O)C6=O)CC4)CC3)c(OC)c2)nc1NC1CCOCC1 (configuration not stated),Activity,[3],50%
CCc1nc(C(N)=O)c(Nc2ccc(N3CCC(N4CCN(C(=O)CCCNc5ccc6c(c5)C(=O)N(C5CCC(=O)NC5=O)C6=O)CC4)CC3)c(OC)c2)nc1NC1CCOCC1 (configuration not stated),Activity,[3],9%
CCc1nc(C(N)=O)c(Nc2ccc(N3CCC(N4CCN(C(=O)CCCCCCCCCOc5ccc6c(c5)C(=O)N(C5CCC(=O)NC5=O)C6=O)CC4)CC3)c(OC)c2)nc1NC1CCOCC1 (configuration not stated),Activity,[3],0%
CCc1nc(C(N)=O)c(Nc2ccc(N3CCC(N4CCN(C(=O)CCCCCCCOc5ccc6c(c5)C(=O)N(C5CCC(=O)NC5=O)C6=O)CC4)CC3)c(OC)c2)nc1NC1CCOCC1 (configuration not stated),Activity,[3],6%
CCc1nc(C(N)=O)c(Nc2ccc(N3CCC(N4CCN(C(=O)CCCOc5cccc6c5C(=O)N(C5CCC(=O)NC5=O)C6=O)CC4)CC3)c(OC)c2)nc1NC1CCOCC1 (configuration not stated),Activity,[3],30%
CCc1nc(C(N)=O)c(Nc2ccc(N3CCC(N4CCN(C(=O)CCCCCCCCCNc5ccc6c(c5)C(=O)N(C5CCC(=O)NC5=O)C6=O)CC4)CC3)c(OC)c2)nc1NC1CCOCC1 (configuration not stated),Activity,[3],0%
CCc1nc(C(N)=O)c(Nc2ccc(N3CCC(N4CCN(c5cccc6c5C(=O)N(C5CCC(=O)NC5=O)C6=O)CC4)CC3)c(OC)c2)nc1NC1CCOCC1 (configuration not stated),Activity,[3],0%
CCc1nc(C(N)=O)c(Nc2ccc(N3CCC(N4CCN(C(=O)CCCCCCCCCNc5cccc6c5C(=O)N(C5CCC(=O)NC5=O)C6=O)CC4)CC3)c(OC)c2)nc1NC1CCOCC1 (configuration not stated),Activity,[3],0%
CCc1nc(C(N)=O)c(Nc2ccc(N3CCC(N4CCN(C(=O)CCCCCCCOc5cccc6c5C(=O)N(C5CCC(=O)NC5=O)C6=O)CC4)CC3)c(OC)c2)nc1NC1CCOCC1 (configuration not stated),Activity,[3],29%
CCc1nc(C(N)=O)c(Nc2ccc(N3CCC(N4CCN(C(=O)CCCCCCCNc5ccc6c(c5)C(=O)N(C5CCC(=O)NC5=O)C6=O)CC4)CC3)c(OC)c2)nc1NC1CCOCC1 (configuration not stated),Activity,[3],40%
CCc1nc(C(N)=O)c(Nc2ccc(N3CCC(N4CCN(C(=O)CCCNc5cccc6c5C(=O)N(C5CCC(=O)NC5=O)C6=O)CC4)CC3)c(OC)c2)nc1NC1CCOCC1 (configuration not stated),Activity,[3],34%
CCc1nc(C(N)=O)c(Nc2ccc(N3CCC(N4CCN(C(=O)CCCOc5ccc6c(c5)C(=O)N(C5CCC(=O)NC5=O)C6=O)CC4)CC3)c(OC)c2)nc1NC1CCOCC1 (configuration not stated),Activity,[3],0%
CCc1nc(C(N)=O)c(Nc2ccc(N3CCC(N4CCN(C(=O)CNc5cccc6c5C(=O)N(C5CCC(=O)NC5=O)C6=O)CC4)CC3)c(OC)c2)nc1NC1CCOCC1 (configuration not stated),DC50,[1],0.98 nM
same,Emax,[2],85%
same,Activity,[3],60%
CCc1nc(C(N)=O)c(Nc2ccc(N3CCC(N4CCN(C(=O)COc5cccc6c5C(=O)N(C5CCC(=O)NC5=O)C6)CC4)CC3)c(OC)c2)nc1NC1CCOCC1 (configuration not stated),DC50,[1],1.01 nM
CCc1nc(C(N)=O)c(Nc2ccc(N3CCC(N4CCN(C(=O)CCCCCOc5cccc6c5C(=O)N(C5CCC(=O)NC5=O)C6=O)CC4)CC3)c(OC)c2)nc1NC1CCOCC1 (configuration not stated),Activity,[3],36%
CCc1nc(C(N)=O)c(Nc2ccc(N3CCC(N4CCN(C(=O)CCCCCNc5ccc6c(c5)C(=O)N(C5CCC(=O)NC5=O)C6=O)CC4)CC3)c(OC)c2)nc1NC1CCOCC1 (configuration not stated),Activity,[3],52%
